Measurements as given in patent publication US9988395B2, “Antiparasitic compositions and methods utilizing substituted 5,5,7,7-tetramethyl-4,5,6,7-tetrahydrothieno[2,3-C]pyridine derivatives” (THE BOARD OF REGENTS OF THE UNIVERSITY OF TEXAS SYSTEM, priority 2015, dated 2018).
Read-outs that look alike come from different tables or passages of the source.

Tests used:
T. cruzi trypomastigotes = assay: Proliferation assay of T. cruzi trypomastigotes inside Human Osteoblasts; assay type: cell-based, Trypanosoma cruzi; conditions: 48 H treatment
Description: IC50 is median inhibitory concentration. TI is therapeutic index. […] This example further illustrates positives effects of treatment with the present compounds. […] The negative control was treated with 1% DMSO. The positive control was treated with Amp B at […].

T. cruzi Epimastigotes = assay: Activity against T. cruzi epimastigotes; assay type: cell-based, Trypanosoma cruzi
[1] = tested on: L. major Luciferase promastigotes; assay: Antiparasitic activity in L. major Luciferase promastigotes; assay type: cell-based, Leishmania major; conditions: 72 hr
Source text: IC50 is median inhibitory concentration. TI is therapeutic index.

| IC50 (T. cruzi trypomastigotes; Trypanosoma cruzi, Osteoblast) | Compound | Mammalian cells LD50 (μM) Raw 264.7 Macrophages (Raw 264.7 Macrophages; mouse, 48 h) | other results |
| --- | --- | --- | --- |
|  | CCOC(=O)c1c(NC(=O)c2cccc(C(F)(F)F)c2F)sc2c1CC(C)(C)NC2(C)C [GP1-04, Ethyl 2-(2-fluoro-3-(trifluoromethyl)benzamido)-5,5,7,7-tetramethyl-4,5,6,7-tetrahydrothieno[2,3-c]pyridine-3-carboxylate] | 17 µM |  |
|  | CCOC(=O)c1c(NC(=O)c2ccc(F)c(C(F)(F)F)c2)sc2c1CC(C)(C)NC2(C)C [GP1-05, Ethyl 2-(4-fluoro-3-(trifluoromethyl)benzamido)-5,5,7,7-tetramethyl-4,5,6,7-tetrahydrothieno[2,3-c]pyridine-3-carboxylate] | 22 µM |  |
| < 10 µM | CCOC(=O)c1c(N)sc2c1CC(C)(C)NC2(C)C [RS1, Ethyl 2-amino-5,5,7,7-tetramethyl-4,5,6,7-tetrahydrothieno[2,3-C]pyridine-3-carboxylate] |  |  |
| < 1.25 µM | CCOC(=O)c1c(NC(=O)c2cccc(C(F)(F)F)c2)sc2c1CC(C)(C)NC2(C)C [RS3, Ethyl 5,5,7,7-tetramethyl-2-(3-(trifluoromethyl)benzamido)-4,5,6,7-tetrahydro-thieno[2,3-c]pyridine-3-carboxylate] | >40 µM |  |
|  | CCOC(=O)c1c(NC(=O)c2c(F)c(F)c(F)c(F)c2F)sc2c1CC(C)(C)NC2(C)C [RS4, Ethyl 5,5,7,7-tetramethyl-2-(perfluorobenzamido)-4,5,6,7-tetrahydrothieno[2,3c]pyridine-3-carboxylate] |  | L. major LD50 (μM) Promastigotes [1]: 0.671 µM; IC50 (T. cruzi trypomastigotes): < 0.156 µM; Mammalian cells LD50 (μM) Raw 264.7 Macrophages (Raw 264.7 Macrophages; macrophage cytotoxicity, text: intraperitoneal macrophages (IPΦ) treated for 48 hrs): ~15 µM |
| 7.5 µM | CCOC(=O)c1c(NC(=O)c2ccc(C(F)(F)F)cc2)sc2c1CC(C)(C)NC2(C)C [RS5, Ethyl 5,5,7,7-tetramethyl-2-(4-(trifluoromethyl)benzamido)-4,5,6,7-tetrahydrothieno[2,3-c]pyridine-3-carboxylate] |  |  |

| Compound | IC50 (T. cruzi trypomastigotes; Trypanosoma cruzi, Osteoblast) | Mammalian cells LD50 (μM) Raw 264.7 Macrophages (Raw 264.7 Macrophages; mouse, 48 h) | other results |
| --- | --- | --- | --- |
| CCOC(=O)c1c(NC(=O)c2ccc([N+](=O)[O-])s2)sc2c1CC(C)(C)NC2(C)C [RS2, ethyl 5,5,7,7-tetramethyl-2-(5-nitrothiophene-2-carboxamido)-4,5,6,7-tetrahydrothieno[2,3-c]pyridine-3-carboxylate] | < 1.25 µM | ~32 µM | T. cruzi LD50 (μM) Epimastigotes (T. cruzi Epimastigotes): ~7.5 µM |
